From ChEMBL document CHEMBL1159279, “Mechanism-based antitumor screening of Caribbean marine organisms: isolation and structure determination of novel diterpenoids from the gorgonian Eunicea tourneforti” (1995)

Tested on: Saccharomyces cerevisiae
Assay: Antifungal activity against DNA-damage repair genes deficient Saccharomyces cerevisiae RS 321 after 48 hrs by mechanism based bioassay
Assay type: functional

Structure (SMILES): C=C(C)C1C/C=C(\C)CC[C@H](O)[C@@]2(C)CCC=C(CC1)C(=O)O2 (stereo partly specified)
- IC12: > 3000 µg/mL

Structure (SMILES): C/C1=C\C[C@@]2(C)C(=O)C=C(C(C)C)[C@@H]2CC[C@]2(C)O[C@H]2CC1
- IC12: 2600 µg/mL

Structure (SMILES): CC(C)=C1C(=O)C[C@]2(C)C/C=C(\C)CC[C@@H]3O[C@@]3(C)CC[C@@H]12
- IC12: 1500 µg/mL

Structure (SMILES): CC(=O)OCC(COC(C)=O)=C1C=C[C@]2(C)C/C=C(\C)CC[C@@H]3O[C@@]3(C)CC[C@@H]12
- IC12: > 3000 µg/mL

Structure (SMILES): CC(=O)OC/C1=C\C[C@@]2(C)CC(=O)C(=C(C)C)[C@@H]2CC[C@]2(C)O[C@H]2CC1
- IC12: 1800 µg/mL

Structure (SMILES): CC(=O)O[C@H]1C/C(C)=C/C[C@@]2(C)CC(=O)C(=C(C)C)[C@@H]2CC[C@]2(C)O[C@@H]12
- IC12: > 3000 µg/mL
